What was measured:
Colon 26 [1] = assay: […] activity evaluated as tumor suppression against colon 26 murine tumor model at a dose 5 mg/kg after intravenous administration; format: functional, organism-based; parameters: dose 5 mg/kg; conditions: Mus musculus
Colon 26 [2] = assay: […] activity evaluated as tumor suppression against colon 26 murine tumor model at a dose 40 mg/kg after intravenous administration; format: functional, Mus musculus
Colon 26 [3] = assay: In vitro cytotoxicity against colon 26 adenocarcinoma cell line was evaluated.; format: functional, cell-based; conditions: Mus musculus
Colon 26 [4] = assay: […] activity evaluated as tumor suppression against colon 26 murine tumor model at a dose 160 mg/kg after intravenous administration; format: functional, Mus musculus
Tubulin = Tubulin (Bos taurus, UniProt Q6B856+Q862L2+Q862F3); assay: Tubulin polymerization inhibitory activity using bovine brain tubulin; format: functional
Colon 26 [5] = assay: […] activity evaluated as tumor suppression against colon 26 murine tumor model at a dose 160 mg/kg after subcutaneous administration; format: functional, Mus musculus
Colon 26 [6] = assay: […] activity evaluated as tumor suppression against colon 26 murine tumor model at a dose 80 mg/kg after intravenous administration; format: functional, Mus musculus
Colon 26 [7] = assay: […] activity evaluated as tumor suppression against colon 26 murine tumor model at a dose 20 mg/kg after intravenous administration; format: functional, Mus musculus

CISPLATIN
IR (Colon 26 [1]): 64%

COc1ccc(/C=C\c2cc(OC)c(OC)c(OC)c2)cc1N.Cl
IR (Colon 26 [2]): 73%
IC50 (Colon 26 [3]): 2.8 nM

COc1ccc(-c2nncn2-c2cc(OC)c(OC)c(OC)c2)cc1N
IR (Colon 26 [4]): 47%
IC50 (Tubulin): 4000 nM
IC50 (Colon 26 [3]): 840 nM

COc1ccc(-c2nnc(C)n2-c2cc(OC)c(OC)c(OC)c2)cc1N
IC50 (Tubulin): > 10000 nM
IC50 (Colon 26 [3]): > 3000 nM

COc1ccc(-c2sc(N)nc2-c2cc(OC)c(OC)c(OC)c2)cc1N
IR (Colon 26 [2]): 75%
IC50 (Tubulin): 1000 nM
IC50 (Colon 26 [3]): 57.5 nM

COc1ccc(-c2c([Si](C)(C)C)n[nH]c2-c2cc(OC)c(OC)c(OC)c2)cc1N
IC50 (Tubulin): > 10000 nM
IC50 (Colon 26 [3]): > 3000 nM

COc1ccc(-c2nnc(O)n2-c2cc(OC)c(OC)c(OC)c2)cc1N
IC50 (Tubulin): > 10000 nM
IC50 (Colon 26 [3]): > 3000 nM

COc1ccc(-c2scnc2-c2cc(OC)c(OC)c(OC)c2)cc1N
IR (Colon 26 [4]): 66%
IC50 (Tubulin): 3000 nM
IC50 (Colon 26 [3]): 14.5 nM

COc1ccc(-c2nnnn2-c2cc(OC)c(OC)c(OC)c2)cc1N
IR (Colon 26 [5]): 89%
IC50 (Tubulin): 2000 nM
IC50 (Colon 26 [3]): 7.2 nM

COc1ccc(-c2nnc(N)n2-c2cc(OC)c(OC)c(OC)c2)cc1N
IC50 (Tubulin): > 10000 nM
IC50 (Colon 26 [3]): > 3000 nM

COc1ccc(-c2sc(NN)nc2-c2cc(OC)c(OC)c(OC)c2)cc1N
IC50 (Tubulin): 3000 nM
IC50 (Colon 26 [3]): 21.1 nM
IR (Colon 26 [6]): 55%

COc1ccc(-c2sc(C)nc2-c2cc(OC)c(OC)c(OC)c2)cc1N
IR (Colon 26 [2]): 24%
IC50 (Tubulin): 2000 nM
IC50 (Colon 26 [3]): 2040 nM

COc1ccc(-c2c[nH]nc2-c2cc(OC)c(OC)c(OC)c2)cc1N
IR (Colon 26 [7]): 0%
IC50 (Tubulin): 3000 nM
IC50 (Colon 26 [3]): 8.4 nM
